According to US6864086B2, “Nitric oxide-scavenging system for culturing oocytes, embryos, or other cells” (Board of Supervisors of Louisiana State University and …, priority 1998, dated 2005):
Several values for one entry are separate records, joined by “and”; a condition that tells them apart may be missing. Equal entries are not always repeated. Marks after values point to notes of the source that are not given here.

System: bovine embryos cultured in groups
Test: Example 6: Hb (1 μg/ml) in mBECM-C in presence or absence of cumulus-granulosa cells
Format: cell-based
Experimental: mBECM containing 10 μM β-mercaptoethanol was used to culture embryos, as described in J. Lim et al., “Roles of growth factors in the development of bovine embryos fertilized in vitro and cultured singly in a defined medium,” Reprod. Fertil. Dev., 8, 1199-1205 (1996). To culture individual 8-cell embryos we used mBECM supplemented with 1 ng/ml platelet derived growth factor type AB (PDGF; Upstate Biotechnology Inc., Lake Placid, N.Y.), 1 ng/ml transforming growth factor-β (TGF; R & D System, Minneapolis, Minn.), 50 ng/ml arachidonic acid (AA; Cayman Chemical Co., Ann Arbor, Mich.), 100 μM glutathione (GSH; Sigma Co.) and 1 mg/ml polyvinyl alcohol (PVA) (mBECM-S). mBECM to which 10% (v/v) FBS was added (mBECM-C) was used for co-culturing inseminated zygotes with CGs and for producing 8-cell embryos. Osmolarity of the medium was maintained within the range of 265-290 mOsm.
The bovine cumulus-oocyte complexes (COCs) used were collected in Madison, Wis. (BOMED, Inc.), and were shipped in 2-ml of maturation medium in a battery powered incubator via overnight express mail service. Oocytes matured during transit and arrived within 24 h after exposure to maturation medium, pre-equilibrated at 39° C. in 5% CO2 in air. At 22-24 h after exposure to the medium, the COCs were inseminated in vitro as described in J. Lim et al., “Intracytoplasmic glutathione concentration and the role of β-mercaptoethanol in preimplantation development of bovine embryos,” Theriogenology, 46, 429-439 (1996). At 18 h post-insemination, COCs were cultured in groups (30-35 embryos) in a 4-well multidish (Nunc, Roskilde, Denmark) containing 0.8-ml of mBECM-C. Embryos were dislodged from CGs at 36-48 h post-insemination.
In Example 1, embryos (83-85 per group) collected 18 h post-insemination were cultured in mBECM-C, to which 0, 0.008, or 0.04 mM SNP was added at 18 or 60 h post-insemination. In Example 2, 8-cell embryos (80 per group) were produced in a co-culture system containing CGs and mBECM-C, and then beginning at 60 h post-insemination were cultured singly in a defined culture medium (mBECM-S), to which 0, 0.0016, 0.008, or 0.04 mM of SNP (S-0501, Sigma Co.) was added. In Example 3 embryos, either uncleaved (n=99) or developed to the 2-cell stage (90), were collected 48 h post-insemination; and cleaved embryos, either developed to the morula stage (69) or degenerate (63) were collected 144 h post-insemination. NO metabolites were then measured in the embryos. In Example 4, three groups of 95 zygotes each were co-cultured with CGs in mBECM-C, to which 0, 1, or 10 μg/ml Hb (bovine, mainly methemoglobin, H-2500, Sigma Co.) was added. […] Inseminated oocytes (104 per group) were co-cultured with CGs in MBECM-C up to 192 h post-insemination; and Hb (1 μg/ml) was added to the medium at 18, 60, or 144 h post-insemination. In Example 6, inseminated oocytes (93 per group) were cultured in the presence or absence of CGs in mBECM-C to which either 0 or 1 μg/ml Hb was added. In Example 7, 8-cell embryos (100 per group), obtained after culture in mBECM-C supplemented with Hb (1 μg/ml), were cultured singly in mBECM-S, with or without Hb.
Oocytes or 8-cell embryos were randomly and equally allocated to each treatment group. In Examples 1, 2, and 4-7, oocytes or embryos that had developed to the 2-cell, 8-cell, >8-cell, 16-cell morula, and blastocyst stages were individually scored ‘1’ (developed) at 48, 60, 96, 120, 144 and 192 h post-insemination, respectively. […] Sums of the scores in each stage of development were evaluated by analysis of variance (ANOVA) using the general linear model (PROC-GLM) in the SAS program software. In Example 3, concentrations of NO metabolites in embryos were subjected to ANOVA. […] Differences were regarded as statistically significant where P values were less than 0.05.

Q: Which “Percent of Embryos Developed to 2-cell” value (Hb 1 μg/ml + CG) does the source give for hemoglobin [Hb] here?
A: 77%

Q: What about the “Percent of Embryos Developed to 8-cell” value (Hb 1 μg/ml + CG) of the same substance?
A: 55%

Q: And the “Percent of Embryos Developed to 16-cell” value (Hb 1 μg/ml + CG)?
A: 51% and 51^b %

Q: What about the “Percent of Embryos Developed to Blastocyst” value (Hb 1 μg/ml + CG) of the same substance?
A: 33% and 33^b %

Q: And the “Percent of Embryos Developed to Morula” value (Hb 1 μg/ml + CG)?
A: 40% and 40^b %

Q: What about the “Percent of Embryos Developed to 2-cell” value (Hb 1 μg/ml only, absence of CG) of the same substance?
A: 73%

Q: And the “Percent of Embryos Developed to 8-cell” value (Hb 1 μg/ml only, absence of CG)?
A: 52%

Q: And the “Percent of Embryos Developed to 16-cell” value (Hb 1 μg/ml only, absence of CG)?
A: 34^a %

Q: And the “Percent of Embryos Developed to Blastocyst” value (Hb 1 μg/ml only, absence of CG)?
A: 19^a %

Q: What about the “Percent of Embryos Developed to Morula” value (Hb 1 μg/ml only, absence of CG) of the same substance?
A: 27^ab %

Q: What about the “promotion of pre-hatching development of embryos” value (Hb 1 μg/ml, cultured in the absence of CG) of the same substance?
A: not seen to promote
